The target of assay [1] is T1, S. aureus topoisomerase IV (Staphylococcus aureus, UniProt P0C1S7+P0C1U9). Description: biochemical.
The subject of another assay is S. aureus ATCC 25923. Briefly: MIC, twofold serial agar dilution. The assay is classed as cell-based. As to conditions: Staphylococcus aureus, ATCC25923, 18 h, 35 °C, read-out: minimal inhibitory concentrations (MIC).
For a further assay, the system named is B. subtilis ATCC 6633. Briefly: disc diffusion method. The assay is classed as cell-based, Bacillus subtilis. The following applies: Bacillus subtilis, ATCC6633, applied 400 µg per disc, dash = lack of the growth inhibition area, read-out: diameter of growth inhibitory zone (GIZ).
The test system of assay [2] is S. epidermidis ATCC 12228. Description: disc diffusion method. The assay is classed as cell-based, Staphylococcus epidermidis. As to conditions: Staphylococcus epidermidis, ATCC12228, applied 400 µg per disc, dash = lack of the growth inhibition area, read-out: diameter of growth inhibitory zone (GIZ).
For assay [3], the system named is S. aureus NCTC 4163. Description: MIC, twofold serial agar dilution. The assay is classed as cell-based. The following applies: Staphylococcus aureus, NCTC4163, 18 h, 35 °C, read-out: minimal inhibitory concentrations (MIC).
Another assay concerns CV-B5. Briefly: microbe, parasite or virus in culture. The following applies: Enterovirus B, CVB5, Vero 76, read-out: CV-B5 EC50. The assay is classed as cell-based, coxsackievirus B5.
Another assay has as its system VV. Briefly: microbe, parasite or virus in culture. The assay is classed as cell-based. The following applies: Orthopoxvirus vaccinia, Vero 76, read-out: VV EC50.
The test system of assay [4] is S. aureus NCTC 4163. Description: disc diffusion method. The assay is classed as cell-based, Staphylococcus aureus. The following applies: Staphylococcus aureus, NCTC4163, applied 400 µg per disc, dash = lack of the growth inhibition area, read-out: diameter of growth inhibitory zone (GIZ).
For a further assay, the system named is BVDV. Briefly: microbe, parasite or virus in culture. The assay is classed as cell-based, bovine viral diarrhoea virus. As to conditions: Bovine viral diarrhea virus isolates and strains, MDBK, in Bos taurus, read-out: BVDV EC50.
The subject of a further assay is RSV. Briefly: microbe, parasite or virus in culture. The assay is classed as cell-based, human respiratory syncytial virus. As to conditions: human respiratory syncytial virus, Vero 76, read-out: RSV EC50.
The target of assay [5] is T1, S. aureus topoisomerase IV. As to conditions: 64 to 0.5 µg/mL, Figure 2.

The source of these data is PMC6222422, “Synthesis and Biological Evaluation of Novel Indole-Derived Thioureas” (Molecules : A Journal of Synthetic Chemistry and Natural …, 2018).

≈ marks a conversion by molar mass, not a printed value.

T1 sequence (P0C1U9 whole entry): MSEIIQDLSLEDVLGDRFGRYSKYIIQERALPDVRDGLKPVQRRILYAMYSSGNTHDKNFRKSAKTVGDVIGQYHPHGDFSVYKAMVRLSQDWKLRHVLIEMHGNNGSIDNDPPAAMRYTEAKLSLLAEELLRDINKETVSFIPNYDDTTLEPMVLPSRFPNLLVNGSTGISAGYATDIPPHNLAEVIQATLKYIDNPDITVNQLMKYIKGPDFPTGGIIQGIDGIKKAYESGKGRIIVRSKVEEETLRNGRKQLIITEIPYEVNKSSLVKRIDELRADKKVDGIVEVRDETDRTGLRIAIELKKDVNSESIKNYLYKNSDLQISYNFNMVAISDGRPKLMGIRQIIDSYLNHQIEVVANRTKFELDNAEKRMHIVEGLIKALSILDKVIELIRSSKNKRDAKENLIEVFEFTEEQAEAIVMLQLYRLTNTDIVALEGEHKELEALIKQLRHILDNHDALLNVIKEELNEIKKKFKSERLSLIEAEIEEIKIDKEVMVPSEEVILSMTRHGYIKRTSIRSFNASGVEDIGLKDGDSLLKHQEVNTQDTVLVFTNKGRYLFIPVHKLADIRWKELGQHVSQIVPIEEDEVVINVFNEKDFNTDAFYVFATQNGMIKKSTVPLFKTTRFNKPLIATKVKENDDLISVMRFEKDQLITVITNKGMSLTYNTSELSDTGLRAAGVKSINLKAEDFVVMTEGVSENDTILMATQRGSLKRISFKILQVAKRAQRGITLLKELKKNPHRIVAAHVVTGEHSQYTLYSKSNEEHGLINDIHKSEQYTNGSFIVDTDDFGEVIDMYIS
T1 sequence (P0C1S7 whole entry): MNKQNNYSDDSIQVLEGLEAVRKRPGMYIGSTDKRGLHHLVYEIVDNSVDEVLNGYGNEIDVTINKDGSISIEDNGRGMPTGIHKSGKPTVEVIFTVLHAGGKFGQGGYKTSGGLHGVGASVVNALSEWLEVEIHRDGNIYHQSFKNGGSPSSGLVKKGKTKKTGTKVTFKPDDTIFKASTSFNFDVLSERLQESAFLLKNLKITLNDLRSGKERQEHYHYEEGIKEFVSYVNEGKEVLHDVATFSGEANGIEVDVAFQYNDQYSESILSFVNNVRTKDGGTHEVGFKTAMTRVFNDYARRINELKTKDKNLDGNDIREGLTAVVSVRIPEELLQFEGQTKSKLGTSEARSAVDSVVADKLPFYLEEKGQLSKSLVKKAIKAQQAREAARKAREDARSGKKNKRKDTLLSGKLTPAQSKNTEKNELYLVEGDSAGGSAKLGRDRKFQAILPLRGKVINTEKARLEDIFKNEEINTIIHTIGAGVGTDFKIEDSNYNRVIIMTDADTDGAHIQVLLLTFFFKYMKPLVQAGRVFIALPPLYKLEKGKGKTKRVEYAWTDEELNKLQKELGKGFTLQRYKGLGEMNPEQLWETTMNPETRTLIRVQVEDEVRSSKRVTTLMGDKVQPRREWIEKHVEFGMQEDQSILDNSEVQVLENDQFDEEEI

In the case of `S=C(NCCc1c[nH]c2ccccc12)Nc1ccc(Cl)c(Cl)c1` [Compound 6, 1-(2-(1H-indol-3-yl)ethyl)-3-(3,4-dichlorophenyl)thiourea], half-maximal inhibition in [1] (IC50) required 79.3 µM. For the same compound, the MIC in the assay with S. aureus ATCC 25923 and in the assay with S. aureus NCTC 4163 [3] was 6.25 µg/mL (≈ 17.2 µM) each time. Besides, the zone of inhibition at 400 µg/disc with B. subtilis ATCC 6633 stood at 15 mm; in assay [2], 16 mm; in the assay with S. aureus NCTC 4163 [4], 10 mm. The half-maximal effective concentration (EC50) in the assay on CV-B5 was over 13 µM; in the assay on VV, over 13 µM; in the assay on BVDV, over 27 µM; in the assay with RSV, over 13 µM.
As for `S=C(NCCc1c[nH]c2ccccc12)Nc1cccc(Cl)c1` [Compound 14, 1-(2-(1H-Indol-3-yl)ethyl)-3-(3-chlorophenyl)thiourea], in [5], the “effect against DNA topoisomerase IV (in words)” value is “not significantly effective”. The MIC in the assay on S. aureus ATCC 25923 and in the assay on S. aureus NCTC 4163 [3] was 50 µg/mL (≈ 152 µM) in each case. The zone of inhibition at 400 µg/disc came out at 12 mm in the assay on B. subtilis ATCC 6633, 12 mm in assay [2] and 13 mm with S. aureus NCTC 4163 [4]. For the same compound, the EC50 in the assay on CV-B5 is 9 ± 1.2 µM; in the assay on VV, over 32 µM; in the assay with BVDV it was over 32 µM; with RSV, over 32 µM.
